Experimental data from ChEMBL document CHEMBL6074655, “Vindeburnol: A natural product-inspired chemical tool for central nervous system drug design” (Eur J Med Chem, 2024).

Legend:
[1] = Toxicity in male mouse assessed as mortality rate at 50 mg/kg, iv; type: organism-based; settings: in vivo
[2] = Toxicity in female mouse assessed as mortality rate at 50 mg/kg, iv; type: organism-based; settings: in vivo

In the case of O[C@@H]1C[C@H]2CCCN3CCc4c(n1c1ccccc41)[C@H]23, the mortality [1] was 70% and the mortality [2] was 64%.
